From US4550186A, “Binuclear copper (II) carboxylates formed from amine-carboxyboranes” (Duke University, priority 1983, dated 1985)

Columns and labels:
Type in all cases: biochemical, mouse
[1] = tested on: Mitochondrial Citrate Exchange; assay: In vitro liver enzyme study: mitochondrial citrate exchange; conditions: in vitro CF1 liver, 10 min
Experimental: (§1) In vitro enzymatic studies were determined using 10% homogenates of CF1 male mouse liver with 50-200 μM of test drugs. In vivo enzymatic studies were determined using 10% homogenates of liver from CF1 male mice obtained after administering the agents for 16 days at a dose ranging from 2.5-20 mg/kg/day intraperitoneally. The liver homogenates for both in vitro and in vivo studies were prepared in 0.25M sucrose and 0.001M (ethylenedinitrilo)tetraacetic acid. Acetyl coenzyme A synthetase and adenosine triphosphate dependent citrate lyase activities were determined spectrophotometrically at 540 nm as the hydroxylamate of acetyl coenzyme A formed after 30 min at 37° C. Mitochondrial citrate exchange was determined by the procedure of Robinson et al [Eur. J. Biochem., 216, 63 (1970)] using ^14 C-sodium bicarbonate (41 mCi/mmol) incorporated into mitochondrial ^14 C-citrate after isolating rat mitochondria (9000 g×10 min) from the homogenates. The exchanges of the ^14 C-citrate were determined after incubating the mitochondrial fraction which was loaded with labeled citrate and test drugs for 10 min. Then the radioactivity was measured in the mitochondrial and supernantant fractions in scintillation fluid and expressed as a percentage. Cholesterol side chain oxidation was determined by the method of Kritchevsky and Tepper [Artherosclerosis, 18, 93 (1973)] using (26-^14 C) cholesterol (50 mCi/mmol) and mitochondria isolated from rat liver homogenates. […] Fatty acid synthetase activity was determined by the method of Brady et al [J. Biol. Chem., 235, 3093 (1960)] using [2-^14 C] malonyl-coenzyme A (37.5 mCi/mmol) which was incorporated into newly synthesized fatty acids that were extracted with ether and counted. Acyl transferase activity was determined with glycerol-3phosphate [L-2-^3 H(N)] […] HCl and counted. Phosphatidate phosphohydrolase activity was measured as the inorganic phosphate released after 30 min from phosphatidic acid by the method of Mavis et al [J. Lipid Res., 19, 467 (1978)]. […]

[2] = tested on: inosinic acid dehydrogenase; assay: In vitro inosinic acid dehydrogenase activity; conditions: 0.25 to 1.0 mM
Experimental: CF1 male mice (~30 g) were implanted with 2×10^6 Ehrlich ascites tumor cells, intraperitoneally on Day 0. Compound I was suspended by homogenation in 0.05% polysorbate.80-water and administered intraperitoneally at 10 and 20 mg/kg for 9 days to determine its effectiveness for inhibition of tumor growth. Mice were sacrificed on Day 10, and the ascites fluid was collected from the peritoneal cavity. The volume and ascrit (packed cell volume) were determined for each animal and the percent inhibition of tumor growth was calculated. For the metabolic studies, mice were treated on Days 8 and 9 with 10 mg/kg of Compound I, intraperitoneally. […]
Carbamyl phosphate synthetase activity was determined using the reaction medium of Kalman et al [Am. […] Citrulline formed from ornithine was measured at 490 nm by the method of Archibald [J. Biol. Chem., 156, 121 (1944)]. […] The ^14 CO2 generated in 15 min was trapped in 1M KOH and counted. Thymidylate synthetase activity was determined using a post-mitochondrial supernatant (9000 g×10 min) and 5 μCi of 5-^3 H-deoxyuridine monophosphate (14 Ci/mmol) according to the method of Kampf et al [ J. Med. Chem., 19, 903 (1976)]. ^14 C-Formate incorporation into purines was determined by the method of Spassova et al [Biochem. Pharmacol., 25, 923 (1976)] using 0.5 μCi of ^14 C-formic acid (52.0 mCi/mmol). […] The Rf value for xanthine monophosphate was scraped and counted. […]

[3] = tested on: sn-Glycerol-3-phosphate Acyl Transferase; assay: In vitro liver enzyme study: sn-glycerol-3-phosphate acyl transferase; conditions: in vitro CF1 liver
Experimental: as §1

What does the source list for “{Cu[(CH3)3 N.BH2 CO2 ]2.(CH3)3 N.BH2 COOH} [Compound I]”?
Mitochondrial Citrate Exchange ([1]; 50 μM): 105 ± 6 Percent Control; Mitochondrial Citrate Exchange ([1]; 100 μM): 104 ± 6 Percent Control; Mitochondrial Citrate Exchange ([1]; 200 μM): 103 ± 7 Percent Control; inosinic acid dehydrogenase inhibition [2]: not inhibited; sn-Glycerol-3-phosphate Acyl Transferase ([3]; 50 μM): 108 ± 6 Percent Control; sn-Glycerol-3-phosphate Acyl Transferase ([3]; 100 μM): 92 ± 8 Percent Control; sn-Glycerol-3-phosphate Acyl Transferase ([3]; 200 μM): 89 ± 6 Percent Control
